From patent US8609173B2, “Compositions comprising sweetness enhancers and methods of making them” (Senomyx Inc., priority 2008, dated 2013)

Tests used:
External panelists = assay: Line scale (15-point sucrose equivalence) sensory test, Example 5, sucrose or LSB, pH 7.1; assay type: in vivo, Human
Protocol: (§1) Several types of sensory tests were used to determine the efficacy of 3-(4-amino-2,2-dioxide-1H-benzo[c][1,2,6]thiadiazin-5-yloxy)-2′,2′-dimethyl-N-propylpropanamide 3-(4-amino-2,2-dioxide-1H-benzo[c][1,2,6]thiadiazin-5-yloxy)-2′,2′-dimethyl-N-propylpropanamide in enhancing the sweetness of sucrose. Two types of tests were conducted: • 1) Sensory scaling tests were performed using a 15-point percent sucrose equivalence scale for sweetness in order to evaluate sweetness enhancement 3-(4-amino-2,2-dioxide-1H-benzo[c][1,2,6]thiadiazin-5-yloxy)-2′,2′-dimethyl-N-propylpropanamide 3-(4-amino-2,2-dioxide-1H-benzo[c][1,2,6]thiadiazin-5-yloxy)-2′,2′-dimethyl-N-propylpropanamide in sucrose or in fructose. • 2) Paired comparison tests (2-alternative forced choice difference tests) were used to determine sweetness equivalence for solutions of sucrose vs. 3-(4-amino-2,2-dioxide-1H-benzo[c][1,2,6]thiadiazin-5-yloxy)-2′,2′-dimethyl-N-propylpropanamide 3-(4-amino-2,2-dioxide-1H-benzo[c][1,2,6]thiadiazin-5-yloxy)-2′,2′-dimethyl-N-propylpropanamide or buffer vs. 3-(4-amino-2,2-dioxide-1H-benzo[c][1,2,6]thiadiazin-5-yloxy)-2′,2′-dimethyl-N-propylpropanamide 3-(4-amino-2,2-dioxide-1H-benzo[c][1,2,6]thiadiazin-5-yloxy)-2′,2′-dimethyl-N-propylpropanamide. Stimuli:
Tests were performed with sucrose or fructose. The sweetener was evaluated with and/or without 3-(4-amino-2,2-dioxide-1H-benzo[c][1,2,6]thiadiazin-5-yloxy)-2′,2′-dimethyl-N-propylpropanamide 3-(4-amino-2,2-dioxide-1H-benzo[c][1,2,6]thiadiazin-5-yloxy)-2′,2′-dimethyl-N-propylpropanamide at the appropriate concentration(s).
3-(4-amino-2,2-dioxide-1H-benzo[c][1,2,6]thiadiazin-5-yloxy)-2′,2′-dimethyl-N-propylpropanamide was prepared as a concentrated stock solution in ethanol to ensure dissolution of the 3-(4-amino-2,2-dioxide-1H-benzo[c][1,2,6]thiadiazin-5-yloxy)-2′,2′-dimethyl-N-propylpropanamide. Therefore, all taste solutions contained ethanol in the final solution. Samples without 3-(4-amino-2,2-dioxide-1H-benzo[c][1,2,6]thiadiazin-5-yloxy)-2′,2′-dimethyl-N-propylpropanamide also contained an equivalent concentration of ethanol. For samples involving 3-(4-amino-2,2-dioxide-1H-benzo[c][1,2,6]thiadiazin-5-yloxy)-2′,2′-dimethyl-N-propylpropanamide at 5-10 ppm (up to 28 μM), the final concentration of ethanol was 0.2%; 30-40 μM, 0.4% ethanol; 50 μM, 0.5% ethanol; and 100 μM, 1% ethanol.
Taste samples were also prepared in low sodium phosphate buffer (pH 7.1; “LSB”) lacking sucrose to evaluate the taste of 3-(4-amino-2,2-dioxide-1H-benzo[c][1,2,6]thiadiazin-5-yloxy)-2′,2′-dimethyl-N-propylpropanamide alone. Low sodium phosphate buffer consists of 0.3 mM KCl, 0.5 mM Na2HPO4, and 0.175 mM KH2PO4.
In scaling test situations, the samples were rated on a 15-point scale for sweetness, ranging from 0=0% sucrose to 15=15% sucrose. To evaluate attributes other than sweetness, references are used for training and are prepared according to the table below. Note that each reference was given a score of 5 on the 15-point scale.
External panelists were used for the tests. The exact number of panelists is reported with test results. Subjects were instructed not to eat or drink anything (except water) for at least 1 hour prior to the test.
Panelists rinsed their mouths with water prior to starting any test. Samples were presented to panelists in a randomized, counterbalanced order. Panelists rinsed with water and had up to a 1 minute delay to clear the mouth of any tastes after each evaluation. Two replicates of each test were performed, unless otherwise noted.
In scaling tests, panelists rate samples monadically for the attributes listed above (see Stimuli). In paired comparison tests, panelists taste pairs of solutions and indicate which sample is perceived to be sweeter.
Attributes of interest are reported for each scaling taste test.
Panelists rinsed their mouths with water prior to starting any test. Samples were presented to panelists in a randomized, counterbalanced order. […]

Panelists = assay: Paired comparison taste test, Example 7, sucrose or fructose solutions; assay type: in vivo, Human
Protocol: as §1
Panelists evaluated two solutions in a paired comparison taste test procedure. They were instructed to select the sweeter of the two samples. They were also asked to comment on how difficult it was to tell the difference in sweetness between both samples and if any off tastes were perceived.
Panelists evaluated two solutions in a paired comparison taste test procedure and were instructed to select the sweeter of the two samples.

## CCCNC(=O)C(C)(C)COc1cccc2c1C(N)=NS(=O)(=O)N2 [3-(4-amino-2,2-dioxide-1H-benzo[c][1,2,6]thiadiazin-5-yloxy)-2′,2′-dimethyl-N-propylpropanamide]
External panelists; 25.0 μM (8.9 ppm) compound on its own
  off tastes: no significant off tastes
External panelists; 25 μM (8.9 ppm) compound on its own, pH 7, n = 30
  Average Sweetness: 0.6
External panelists; 25.0 μM (8.9 ppm) compound on its own, p>0.10
  Sweetness vs sucrose solutions (conclusion): not significantly different in sweetness than 0% sucrose
External panelists; 25 μM compound on its own, n = 30
  Average Bitterness: 0.2
External panelists; 50 μM (17.7 ppm) compound on its own in LSB, pH 7.1, n = 14
  Average Sweetness: 1.3
External panelists; 50 μM compound in LSB, pH 7.1
  bitter off tastes: no significant bitter off tastes
External panelists; 50 μM compound on its own in LSB
  off tastes: no significant off tastes
External panelists; 1% Sucrose + 5 ppm (14.11 μM) compound, n = 30
  Average Bitterness: 0.4
External panelists; 1% Sucrose + 5 ppm (14.11 μM) compound, pH 7.1, n = 30
  Average Sweetness: 2.5
External panelists; 1% sucrose + 5 ppm compound, p>0.10
  Sweetness vs sucrose solutions (conclusion): not significantly different in sweetness than 2% sucrose
External panelists; 1-10 ppm compound in 6% sucrose, LSB, pH 7.1
  off tastes: no significant off tastes
External panelists; 2% Sucrose + 25 μM (8.9 ppm) compound, pH 7.1, n = 28
  Average Sweetness: 5.6
External panelists; 2% Sucrose + 25 μM compound, n = 28
  Average Bitterness: 0.3
External panelists; 2% Sucrose + 5 ppm (14.11 μM) compound, n = 30
  Average Bitterness: 0.2
External panelists; 2% Sucrose + 5 ppm (14.11 μM) compound, pH 7.1, n = 30
  Average Sweetness: 4.6
External panelists; 2% sucrose + 5 ppm compound
  Sweetness vs sucrose solutions (conclusion): not significantly different in sweetness than 4% sucrose
External panelists; 2% sucrose + 8.9 ppm compound, p>0.10
  Sweetness vs sucrose solutions (conclusion): not significantly different in sweetness than 6% sucrose
External panelists; 4% Sucrose + 25 μM (8.9 ppm) compound, pH 7.1, n = 28
  Average Sweetness: 8.3
External panelists; 4% Sucrose + 25 μM compound, n = 28
  Average Bitterness: 0.3
External panelists; 4% Sucrose + 5 ppm (14.11 μM) compound, n = 30
  Average Bitterness: 0.2
External panelists; 4% Sucrose + 5 ppm (14.11 μM) compound, pH 7.1, n = 30
  Average Sweetness: 8.1
External panelists; 4% sucrose + 5 ppm compound, p>0.10
  Sweetness vs sucrose solutions (conclusion): not significantly different in sweetness than 8% sucrose
External panelists; 4% sucrose + 8.9 ppm compound, p>0.10
  Sweetness vs sucrose solutions (conclusion): not significantly different in sweetness than 8% sucrose
External panelists; 5 ppm compound in 1-6% sucrose, LSB, pH 7.1
  off tastes: no significant off tastes
External panelists; 6% Sucrose + 25 μM (8.9 ppm) compound, pH 7.1, n = 24
  Average Sweetness: 10.6
External panelists; 6% Sucrose + 25 μM compound, p>0.10
  Sweetness vs sucrose solutions (conclusion): not significantly different in sweetness than 10% or 12% sucrose
External panelists; 6% Sucrose + 25 μM compound, pH 7.1, n = 24
  Average Bitterness: 0.1
External panelists; 6% Sucrose + 50 μM (17.7 ppm) compound, pH 7.1, n = 15
  Average Sweetness: 9.9
External panelists; 6% Sucrose + 50 μM compound, p>0.10
  Sweetness vs sucrose solutions (conclusion): not significantly different in sweetness compared to 10% or 12% Sucrose
External panelists; 6% Sucrose + 50 μM compound, pH 7.1, n = 15
  Average Bitterness: 0.2
External panelists; 6% Sucrose + 1 ppm (2.82 μM) compound, n = 30
  Average Bitterness: 0.7
External panelists; 6% Sucrose + 1 ppm (2.82 μM) compound, pH 7.1, n = 30
  Average Sweetness: 7.5
External panelists; 6% Sucrose + 2 ppm (5.64 μM) compound, n = 30
  Average Bitterness: 0.4
External panelists; 6% Sucrose + 2 ppm (5.64 μM) compound, pH 7.1, n = 30
  Average Sweetness: 8.0
External panelists; 6% Sucrose + 4 ppm (11.29 μM) compound, n = 30
  Average Bitterness: 0.4
External panelists; 6% Sucrose + 4 ppm (11.29 μM) compound, pH 7.1, n = 30
  Average Sweetness: 10.1
External panelists; 6% Sucrose + 5 ppm (14.11 μM) compound, n = 30
  Average Bitterness: 0.4
External panelists; 6% Sucrose + 5 ppm (14.11 μM) compound, pH 7.1, n = 30
  Average Sweetness: 10.2
External panelists; 6% Sucrose + 7 ppm (19.75 μM) compound, n = 30
  Average Bitterness: 0.3
External panelists; 6% Sucrose + 7 ppm (19.75 μM) compound, pH 7.1, n = 30
  Average Sweetness: 10.3
External panelists; 6% Sucrose + 7 ppm compound, p>0.10
  Sweetness vs sucrose solutions (conclusion): not significantly different than 10% or 12% sucrose
External panelists; 6% Sucrose + 10 ppm (28.22 μM) compound, n = 30
  Average Bitterness: 0.6
External panelists; 6% Sucrose + 10 ppm (28.22 μM) compound, pH 7.1, n = 30
  Average Sweetness: 10.9
External panelists; 6% Sucrose + 10 ppm compound, p>0.10
  Sweetness vs sucrose solutions (conclusion): not significantly different than 10% or 12% sucrose
External panelists; 6% sucrose + 25 μM compound
  off tastes: no significant off tastes
External panelists; 6% sucrose + 4 ppm compound, p>0.10
  Sweetness vs sucrose solutions (conclusion): not significantly different than 10% sucrose
External panelists; 8.9 ppm compound in 2-4% sucrose, LSB, pH 7.1
  off tastes: no significant off tastes
Panelists; 28 μM (9.9 ppm) compound chosen, vs 1% Sucrose, n = 32
  Sample selected as more sweet by panelists, Total: 4
Panelists; 28 μM compound vs 1% sucrose
  Sweetness comparison (conclusion): 1% sucrose was significantly sweeter
Panelists; 6% Fructose + 25 μM (8.9 ppm) compound chosen, vs 6% Fructose, N = 25
  Sample selected as sweeter by panelists, Test 1: 20
Panelists; 6% Fructose + 25 μM (8.9 ppm) compound chosen, vs 7% Fructose, N = 25
  Sample selected as more sweet by panelists, Test 1: 12
Panelists; 6% fructose + 25 μM compound vs 6% fructose, p<0.05
  Sweetness comparison (conclusion): significantly sweeter than 6% fructose
Panelists; 6% fructose + 25 μM compound vs 7% fructose
  Sweetness comparison (conclusion): no significant difference in sweetness
